Test results from patent publication US10398142B2, “Polycationic amphiphiles as antimicrobial agents” (priority 2013, dated 2019).
Where two headings read alike, the source gives them in different places.

Experiments:
[1] = system: red blood cells (defibrinated sheep blood); test: Hemolysis assay (Lysis20); conditions: Table 4; concentration at which less than 20% of red blood cells are lysed
In short: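 Defibrinated sheep red blood cells were incubated with compounds serially diluted in PBS, and the suspensions were read by OD. 1% Triton X served as 100% lysis and PBS as 0% lysis. Lysis20 is the concentration (μM) at which less than 20% of cells are lysed.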

[2] = system: CA-MRSA (USA300-0114); test: Minimum inhibitory concentration (MIC), broth microdilution; assay type: cell-based, Staphylococcus aureus; conditions: Table 4; USA300-0114; read-out: MIC CA-MRSA
In short: (§1)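 Two-fold serial dilutions (twelve concentrations) from aqueous stock; inoculum ca. 10^6 cfu/mL in Mueller-Hinton media, static incubation at 37 °C for 72 h. MIC read visually as lowest concentration with no visible growth, majority of three independent experiments.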

[3] = system: HA-MRSA (ATCC 33591); test: as above; assay type: cell-based, Staphylococcus aureus; conditions: Table 4; ATCC 33591; read-out: MIC HA-MRSA
In short: as §1

[4] = system: E. faecalis biofilms; test: Minimum biofilm eradication concentration (MBEC), regrowth assay; assay type: cell-based, Enterococcus faecalis; conditions: Table 5
In short: (§2)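 Static 24 h biofilms at 37° C. (BHI for S. aureus, Todd Hewitt for E. faecalis), then 16 h compound exposure, PBS washes and overnight regrowth in fresh media. MBEC is the lowest concentration giving final OD595 below 0.1; four replicates per concentration.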

[5] = system: Enterococcus faecalis (OG1RF); test: Minimum inhibitory concentration (MIC), broth microdilution; assay type: cell-based; conditions: Table 3; read-out: MIC E. faecalis
In short: (§3)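 Broth microdilution: two-fold serial dilutions (twelve concentrations) mixed 1:1 with overnight cultures diluted to ca. 10^6 cfu/mL in Mueller-Hinton media, incubated statically at 37° C for 72 hours. MIC is lowest concentration with no growth visible to the naked eye, majority of three independent experiments.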

[6] = system: Staphylococcus aureus MSSA (SH1000); test: as above; assay type: cell-based
In short: as §3

[7] = system: Escherichia coli (MC4100); test: as above; assay type: cell-based; conditions: Table 3; read-out: MIC E. coli
In short: as §3

[8] = system: Pseudomonas aeruginosa (PAO1); test: as above; assay type: cell-based; conditions: Table 3; read-out: MIC P. aeruginosa
In short: as §3

[9] = system: CA-MRSA (USA300-0114) biofilms; test: Minimum biofilm eradication concentration (MBEC), regrowth assay; assay type: cell-based, Staphylococcus aureus; conditions: Table 5; USA300-0114
In short: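 CA-MRSA USA300-0114 biofilms grown statically 24 h at 37 °C in BHI, then exposed to compound for 16 h at 37 °C. After PBS washes, biofilms regrown overnight in fresh media; MBEC is the lowest concentration giving OD595 below 0.1, four replicates per concentration.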

[10] = system: Staphylococcus aureus, Enterococcus faecalis, Escherichia coli and Pseudomonas aeruginosa; test: MIC, summary statements over the four bacteria; assay type: cell-based; conditions: comparison of MIC values
Method: The term “minimum inhibitory concentration (MIC)” means the lowest concentration of an antimicrobial agent that will inhibit the visible growth of a microorganism after overnight incubation. MIC values against bacteria, for example, the Gram-positive Staphylococcus aureus and Enterococcus faecalis and the Gram-negative Escherichia coli and Pseudomonas aeruginosa were determined by standard methods. See also P. A. Wayne, Methods for Dilution Antimicrobial Tests for Bacteria that Grow Aerobically; Approved Standard, Ninth Edition, 2012, CLSI Document M07-A9, Vol. 32 No. 2.
With nearly three-dozen amphiphiles varying in structure and cationic nature synthesized, minimum inhibitory concentration (MIC) values against the Gram-positive Staphylococcus aureus and Enterococcus faecalis and the Gram-negative Escherichia coli and Pseudomonas aeruginosa were determined by standard methods. […] The commercially available antibacterial agent benzalkonium chloride (benzyldimethyldodecylammonium chloride, Bn,12) was tested for comparison. The broth microdilution for determining MIC values was performed as previously reported.
MIC variation mostly hinged on the length of alkyl chain, where the dodecyl chain was generally found to be optimal. […]

[11] = system: S. aureus (MSSA, SH1000) biofilms; test: Minimum biofilm eradication concentration (MBEC), regrowth assay; assay type: cell-based, Staphylococcus aureus; conditions: Table 5; SH1000
In short: as §2

[12] = system: CA-MRSA (USA300-0114); test: Resistance development, liquid culture serial passage; assay type: cell-based, Staphylococcus aureus; conditions: over 24 days (>500 generations)
Method: (§4) Resistance development such as liquid culture resistance assay was performed. […] Once a day, an aliquot of bacterial culture from the highest concentration allowing bacterial growth was diluted 1:10,000 in fresh media containing a range of antibacterial compound. This process was repeated for several hundred generations.
(§5) Resistance Development Assays: Liquid culture serial passage protocols, in which bacteria are successively grown at sub-lethal concentrations of antibacterial compound, were employed.

[13] = system: MSSA (SH1000); test: as above; assay type: cell-based, Staphylococcus aureus; conditions: over 24 days (>500 generations)
Method: as §4, §5

[14] = Table 3, read-out: MIC S. aureus
[15] = Table 4, SH1000, read-out: MIC MSSA

Compound | Lysis20 [1] | MIC [2] | MIC [3] | MBEC E. faecalis [4] | MIC [5] | MIC [6, 14] | MIC [6, 15] | MIC [7] | MIC [8] | MBEC CA-MRSA [9] | fold more bioactive than (N4-12,0,0,0) [10] | MBEC MSSA [11] | resistance in serial passage, CA-MRSA (USA300-0114) [12] | resistance in serial passage, MSSA [13]
CCCCCCCCCCCC[N+](C)(C)CCN(C)CCN(C)CC[N+](C)(C)CCCCCCCCCCCC.[Br-].[Br-] [N4-12,0,0,12] | 4 µM | 1 µM | 1 µM | 75 ± 25 µM | 1 µM | 1 µM | 1 µM | 1 µM | 4 µM | 100 µM | about 8 fold | 50 µM |  | 
C=CC[N+](C)(CC[N+](C)(C)CCCCCCCCCCCC)CC[N+](C)(CC=C)CC[N+](C)(C)CCCCCCCCCCCC.[Br-].[Br-].[Br-].[Br-] (centres unmarked) [N4-12,3A,3A,12] | 8 µM | 1 µM | 0.5 µM | 200 µM | 1 µM | 1 µM | 1 µM | 1 µM | 2 µM | 150 ± 50 µM | about 8 fold | 100 µM | No resistance was observed | No resistance was observed
